This note sets out measurements from patent US20250034168A1, “NITROGEN-CONTAINING HETEROCYCLIC DERIVATIVE PARP INHIBITOR AND USE THEREOF” (XIZANG HAISCO PHARMACEUTICAL CO., LTD., priority 2021, published 2025).

SMILES strings stand for the structures.

One data set addresses PARP-1 enzyme (Homo sapiens (Human), UniProt P09874). Kind of data set: PARP-1 enzyme activity test. It counts as biochemical. As to the method: PARP-1 chemical […] detection kit was purchased from BPS Bioscience. The histone solution in the kit was diluted 5× with 1×PBS, and 25 μL of the diluted histone solution was added to a microwell plate and incubated overnight at 4° C. After the incubation, the plate was washed three times with PBST (0.05% Tween-20). 100 μL of the blocking solution was added to the microwell plate and incubated at 25° C. for 90 minutes. After the incubation, the plate was washed three times with PBST. 2.5 μL of compounds at different concentrations diluted in test buffer and 12.5 μL of substrate mixed solution (1.25 μL 10×PARP test buffer; 1.25 μL 10×PARP test mixed solution; 2.5 μL Activated DNA, 7.5 μL double-distilled water) were added to the microwell plate. The PARP-1 enzyme was diluted to 2 ng/μL, 10 μL of the diluent was added to the microwell plate, and the reaction system was incubated at 25° C. for 60 minutes.
After the incubation, the plate was washed three times with PBST. Streptavidin-HRP was diluted 50× with a blocking solution, and 25 μL of the diluent was added to the microwell plate and incubated at 25° C. for 30 minutes. After the incubation, the plate was washed three times with PBST. ELISA ECL substrate A and substrate B were mixed at a ratio of 1:1 (v/v), 50 μL of the mixture was added to the microwell plate, and the chemiluminescence value was read.
The inhibition rate was calculated according to formula 1, where RLUsample was the readout of the compound well, RLUmax was the readout of the solvent control well, and RLUmin was the readout of the control well without the PARP-1 enzyme. Curve fitting was performed by four parameters (log(inhibitor) vs. response—Variable slope) using GraphPad Prism software, and the IC50 value was calculated.

The test system of another data set is MDA-MB-231 cells. Kind of data set: MDA-MB-231 cell proliferation inhibition test. The conditions noted are these: Homo sapiens. It counts as cell-based. As to the method:
Human breast cancer MDA-MB-231 cells purchased from ATCC were placed in complete DMEM medium (supplemented with 10% fetal bovine serum and 1% double antibody) and cultured at 37° C. and 5% CO2. The cells in the exponential growth phase were collected, and the cell suspension was adjusted to 1500 cells/135 μL with the culture medium. 135 μL of the cell suspension was added to each well of a 96-well cell culture plate and incubated overnight. On day 2, compounds at different concentrations were added, and the plate was placed in the incubator and incubated for 7 days. After the incubation was completed, according to operation instructions for a CellTiter-Glo kit (Promega, Cat #G7573), 75 μL of CTG solution, which was already pre-melted and equilibrated to room temperature, was added to each well, and the mixture was uniformly mixed for 2 min using a microplate shaker. The plate was placed at room temperature for 10 min, and then […] signal values were measured using an Envision 2104 plate reader (PerkinElmer). The cell proliferation inhibition rate was calculated according to the formula [(1−(RLUcompound−RLUblank)/(RLUcontrol−RLUblank))×100%]. The IC50 value was obtained by four-parameter nonlinear fitting using GraphPad Prism software.

Data set [1] can be described thus: Pharmacokinetic test in rats. It counts as in vivo, SD rats. As to the method:
• 5.1.1 Experimental animals: male SD rats, about 220 g, 6-8 weeks old, 6 rats/compound, purchased from Chengdu Ddossy Experimental Animals Co., Ltd. • 5.1.2 Experimental design: on the day of the test, 6 SD rats were randomly grouped according to their body weight; the animals were fasted with water available for 12 to 14 h one day before the administration, and were fed 4 h after the administration.
Before and after the administration, 0.15 ml of blood was taken from the orbit of the animals under isoflurane anesthesia and placed in an EDTAK2 centrifuge tube. The blood was centrifuged at 5000 rpm and 4° C. for 10 min to collect plasma. The blood collection time points for the intravenous administration group and intragastric administration group were: 0, 5 min, 15 min, 30 min, 1 h, 2 h, 4 h, 6 h, 8 h, and 24 h. Before analysis and detection, all samples were stored at −80° C., and a quantitative analysis of samples was performed using LC-MS/MS.

In data set [2] the test system is MDA-MB-436 subcutaneous transplanted tumor. Kind of data set: Mouse MDA-MB-436 subcutaneous in vivo transplanted tumor model. Details: species or system BALB/c nude mice. As to the method:
Human breast cancer MDA-MB-436 cells were placed in Leibovitz's L-15 medium (supplemented with 10 μg/mL insulin, 16 μg/mL glutathione, 10% fetal bovine serum and 1% double antibody) and cultured at 37° C. Conventional digestion treatment with trypsin was carried out twice a week for passage. When the cell saturation was 80%-90%, and the number reached the requirement, the cells were collected, counted, and inoculated. BALB/c nude mice (from Beijing Vital River Laboratory Animal Technology Co., Ltd.) were subcutaneously inoculated with 0.2 mL (10×10^6) of MDA-MB-436 cells (plus matrigel, with the volume ratio of 1:1) on the right back. When the average tumor volume reached about 180 mm^3, grouping and administration were performed (marked as Day 0). The solvent group was given 5% DMSO, 30% PEG400 and 65% of 20% sulfobutyl-β-cyclodextrin solution, and the administration group was given compound 14 (Day 0-Day 10:1 mg/kg; Day 11-Day 28:0.1 mg/kg). The administration frequency was once a day, the administration cycle was 29 days, and the drug withdrawal observation period was set to 14 days. After grouping, the tumor diameter was measured twice a week with a vernier caliper. The formula for calculating the tumor volume was: V=0.5×a×b^2, where a and b represented the long and short diameters of the tumor, respectively. The tumor inhibitory effect of compound 14 was evaluated by TGI (%)=[(1−(average tumor volume at the end of administration in the treatment group−average tumor volume at the beginning of administration in the treatment group))/(average tumor volume at the end of treatment in the solvent control group−average tumor volume at the beginning of treatment in the solvent control group)]×100%. The tumor growth curve and the animal body weight change curve were as shown in FIG. 1 and FIG. 2, respectively.

Setting [3] is: male, Sprague-Dawley, iv, rat plasma, i.v. 2.5 mg/kg.

PARP-1 enzyme, sequence (P09874 whole entry): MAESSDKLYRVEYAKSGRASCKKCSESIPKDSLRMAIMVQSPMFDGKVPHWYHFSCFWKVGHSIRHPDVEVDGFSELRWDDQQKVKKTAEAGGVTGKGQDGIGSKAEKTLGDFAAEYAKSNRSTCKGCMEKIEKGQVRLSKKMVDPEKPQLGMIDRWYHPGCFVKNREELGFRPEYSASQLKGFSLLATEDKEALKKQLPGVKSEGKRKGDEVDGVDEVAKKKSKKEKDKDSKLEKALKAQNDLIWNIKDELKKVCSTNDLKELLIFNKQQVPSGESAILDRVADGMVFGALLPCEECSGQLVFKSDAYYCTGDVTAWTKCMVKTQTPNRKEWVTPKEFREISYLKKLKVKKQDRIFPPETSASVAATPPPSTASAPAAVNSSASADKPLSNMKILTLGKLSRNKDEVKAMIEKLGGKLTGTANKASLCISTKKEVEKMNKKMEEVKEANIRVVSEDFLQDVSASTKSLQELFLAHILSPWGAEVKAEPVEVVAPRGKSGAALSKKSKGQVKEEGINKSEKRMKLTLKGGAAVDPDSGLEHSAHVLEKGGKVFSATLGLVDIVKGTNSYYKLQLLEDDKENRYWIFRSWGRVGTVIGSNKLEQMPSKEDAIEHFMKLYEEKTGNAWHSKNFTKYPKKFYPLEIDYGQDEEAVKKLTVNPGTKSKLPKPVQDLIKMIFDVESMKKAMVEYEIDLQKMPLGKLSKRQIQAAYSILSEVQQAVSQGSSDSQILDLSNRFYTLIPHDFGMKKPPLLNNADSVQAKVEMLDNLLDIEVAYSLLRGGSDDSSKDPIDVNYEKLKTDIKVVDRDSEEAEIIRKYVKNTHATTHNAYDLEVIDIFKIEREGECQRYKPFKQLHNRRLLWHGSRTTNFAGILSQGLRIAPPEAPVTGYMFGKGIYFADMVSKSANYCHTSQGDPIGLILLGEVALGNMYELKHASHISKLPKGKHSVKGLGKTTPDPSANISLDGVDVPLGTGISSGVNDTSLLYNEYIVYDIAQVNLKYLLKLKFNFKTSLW

For the molecule `CCc1cc2ncc(CN3CC=C(c4ccc(C(=O)NC)nc4)CC3)cc2[nH]c1=O` [Compound 14, 1′-((7-ethyl-6-oxo-5,6-dihydro-1,5-naphthyridin-3-yl)methyl)-N-methyl-1′,2′,3′,6′-tetrahydro-[3,4′-bipyridine]-6-carboxamide], the IC50 – broadly, the point on the concentration scale where inhibition reaches its midpoint – is 0.00059 µM against PARP-1 enzyme and 21.8 µM with MDA-MB-231 cells (MDA-MB-231, 168 h, BRCA WT cells, 7 days incubation, CellTiter-Glo, read-out: MDA-MB-231 cell inhibitory activity IC50). Also, the inhibition at 10 µM with MDA-MB-231 cells (MDA-MB-231 cells, 10 μM, read-out: Max inh. % 10 μM) was determined as 59.2%. Besides, the area under the curve AUC(0-t) (as a rule, exposure summed from dosing to a finite time, without extrapolation to infinity) in data set [1] (setting [3]) was found to be 84.2 µg·h/mL; in data set [1] (male, Sprague-Dawley, po, rat plasma, i.g. 10 mg/kg) it was 248 µg·h/mL. For the same molecule, the clearance (as a rule, the volume of plasma or blood freed of the substance per unit of time) in data set [1] (setting [3]) amounted to 0.494 mL/min/kg. Besides, the Vd in data set [1] (male, Sprague-Dawley, iv, rat plasma, i.v. 2.5 mg/kg, read-out: Vdss) was 0.164 L/kg. In addition, the F in data set [1] (rat, i.g. 10 mg/kg) came out at 73.8%. For the same molecule, in data set [2] (Day 0-Day 10: 1 mg/kg, Day 11-Day 28: 0.1 mg/kg, once a day), the “body weight of the animals” value was “no significant decrease”. In addition, the TGI in data set [2] (after 28 days of administration, Day 0-Day 10: 1 mg/kg, Day 11-Day 28: 0.1 mg/kg, once a day) stood at 121%. In addition, in data set [2] (drug withdrawal observation period 14 days), the “tumor growth after drug withdrawal” value was “did not grow again”.
